Molecules are shown by their SMILES. Where two headings read alike, the source gives them in different places.

For one data set, the target named is T1, human NPSR-107I (Homo sapiens, UniProt Q6W5P4, N107I).
T1 construct: expressed in transfected cells
T1 sequence (Q6W5P4 1-371 N107I): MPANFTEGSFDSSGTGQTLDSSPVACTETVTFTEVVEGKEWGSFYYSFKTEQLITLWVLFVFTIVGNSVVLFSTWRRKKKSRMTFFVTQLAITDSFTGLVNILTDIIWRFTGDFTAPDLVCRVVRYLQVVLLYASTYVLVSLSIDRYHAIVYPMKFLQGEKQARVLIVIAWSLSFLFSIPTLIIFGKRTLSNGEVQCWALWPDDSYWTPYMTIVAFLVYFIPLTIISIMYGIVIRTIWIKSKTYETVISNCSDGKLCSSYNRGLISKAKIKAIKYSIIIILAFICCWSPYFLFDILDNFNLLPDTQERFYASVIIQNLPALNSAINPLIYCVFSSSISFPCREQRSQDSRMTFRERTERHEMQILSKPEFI
Briefly: Ca+2 mobilization assay (apparent Ke against NPS). In kind it is cell-based. On the procedure:
A stable cell line overexpressing the human NPSR-107I was created in CHO-Gαq16 cells (RD-HGA16, Molecular Devices), as previously described. Briefly, CHO-Gαq16 cells were transfected with pcDNA 3.1 human NPSR-107I using Lipofectamine reagent. Transfected cells were plated into 10 cm^2 dishes 24 h post-transfection and were selected using Geneticin. After 2 weeks, individual clones were selected, grown to confluence, and screened in a functional 96-well calcium mobilization assay that measured the response to NPS (100 nM final). […] A final working clone was chosen for all subsequent studies based on NPS potency and the calcium mobilization signal window. CHO-Gα16-hNPSR-107I cells were cultured in Ham’s F12 media supplemented with 10% FBS, 100 units/mL penicillin, 100 μg/mL streptomycin, 200 μg/mL hygromycin, and 400 μg/mL geneticin. Media were purchased from HyClone (GE Life Sciences); FBS, penicillin/streptomycin, hygromycin, and geneticin were purchased from Invitrogen (Thermo Scientific). The day before the assay, cells were plated into 96-well black-walled assay plates at 25,000–40,000 cells/well in growth medium without selection antibiotics. Cells were incubated overnight at 37 °C, 5% CO2. The FLIPR Calcium 5 assay kit (Molecular Devices) was used according to the manufacturer’s instructions with minor modifications. Briefly, reconstituted dye was diluted in pre-warmed assay buffer (HBSS, 20 mM HEPES, 2.5 mM probenecid, pH 7.4 at 37 °C). Growth medium was removed, and the cells were gently washed with assay buffer. Calcium 5 dye was added to the cells and the plate was incubated for 45 min at 37 °C, 5% CO2. A single concentration of test compound and 10-point concentration–response curves of NPS (ranging from 100 nM to 1 pM) were prepared at 10× the desired final concentration. Cells were pretreated with the test compound or vehicle in a final concentration of 0.25% BSA/1% DMSO for 15 min at 37 °C. Assay plates were read with a FlexStation II instrument (excitation at 485 nm, detection at 525 nm, Molecular Devices). Calcium-mediated changes in fluorescence were monitored every 1.5 s over a 90 s time period. NPS was added during the read and the maximum kinetic […] (SoftMax [Max-Min], Molecular Devices) in relative fluorescent units (RFU) was measured. Data were fitted to a three-parameter logistic curve to generate EC50 values (GraphPad Prism 6.0). Antagonism was quantified by measuring the ratio of equi-active concentrations of agonist measured in the presence or absence of the antagonist. Apparent Ke values were calculated using the equation Ke = [L]/((EC50^+/EC50^−) − 1), where [L] is the concentration of test compound, EC50^+ is the EC50 of NPS with test compound, and EC50^– is the EC50 of NPS alone. Ke values were considered valid when the EC50^+/EC50^− ratio was at least 4. HBSS and HEPES were purchased from Gibco (Thermo Scientific); probenecid, BSA, and DMSO were purchased from Sigma-Aldrich.

Data set [1] can be described thus: Pharmacokinetic study in C57Bl6 mice. In kind it is in vivo, C57/Bl6 mice. The settings on record: 30 mg/kg i.p.; for Cmax: mouse, ip. On the procedure: Animals were administered vehicle (1% n-methyl-2-pyrrolidone (NMP) with 0.5% Tween 80 in 0.5% carboxymethyl cellulose (CMC) in water) or compound 14b dissolved in the same vehicle (30 mg/kg, i.p.), and were euthanized at the appropriate timepoints by isoflurane overdose with decapitation. Trunk blood and brains were taken at 15, 30, 60, 120, and 240 min post-injection. Blood was collected in 5 mL tubes that had been preloaded with 0.5 M EDTA so that the final concentration would be approximately 5 mM. Blood/EDTA was centrifuged at 1000× g at 4 °C for 10 min. Plasma was collected and flash-frozen on dry ice and stored at −80 °C until analysis.
Stock solutions of 14b were prepared and diluted serially to generate standard curve and quality control spiking solutions. The concentrations in plasma and brain homogenate for 14b were 0.5, 1, 5, 10, 50, 100, 500, and 1000 ng/mL for standard curves.
Brains were weighed and homogenized at 1:5 (wt:vol) with 50:50 ethanol:water using a Geno/Grinder 2010 (SPEXSamplePrep, Metuchen, NJ, USA) twice at 1750 rpm for 30 s. Subsequently, 50 µL of plasma or brain homogenate was mixed with 150 µL of acetonitrile containing reserpine as internal standard (100 ng/mL) in a 96-well plate. The plate was shaken at 700 rpm for 3 min and then centrifuged at 4000 rpm for 10 min at 4 C. Then, 50 µL of supernatant was mixed with 50 µL of water in a new plate and analyzed by LC/MS-MS.
A SCIEX Exion AD UHPLC system (Framingham, MA) was used to inject 10 µL of the processed samples/calibration standards onto a Waters Acquity BEH C18 (2.1 mm × 100 mm, […]) column (Milford, MA). Mobile phase A consisted of 0.1% formic acid in water, and mobile phase B consisted of 0.1% formic acid in acetonitrile. […] Quantitation was achieved by multiple reaction monitoring in positive ion mode using an SCIEX 6500+ (Framingham, MA) QTRAP mass spectrometer. Compound 14b was quantitated by monitoring the transition of m/z 445.044 → 251.1, and the internal standard, reserpine, was monitored by m/z 609.300 → 194.9. […]

One may read the Cmax as the peak of the concentration-time curve. `CC(C)CC1(c2ccccc2)OC(=O)C2=C1CN(C(=O)NCc1ccccc1)CC2` (single isomer, unassigned; (+)) [Compound 14b, (+) N-benzyl-3-(2-methylpropyl)-1-oxo-3-phenyl-1H,3H,4H,5H,6H,7H-furo[3,4-c]pyridine-5-carboxamide]: the “Shift of the agonist activity of NPS” value at human NPSR-107I (3 µM concentration, calcium mobilization assay) is “significant right shift”. The Kb on human NPSR-107I (Calcium Mobilization, CHO-Gα16-hNPSR-107I cells, shift of NPS EC50) amounted to 71.4 nM. Besides, at human NPSR-107I (in vitro antagonist potency), the “Potency relative to SHA-68” value is recorded as “approximately sevenfold less potent”. Moreover, the Clearance in plasma in data set [1] is on record as 288 mL/min/kg. Besides, the Cmax in data set [1] (brain, read-out: Cmax in brain) was found to be 186 ng/mL; in data set [1] (plasma, read-out: Cmax in plasma), 1940 ng/mL.

Values taken from paper PMC8538004, “Identification of a Novel Neuropeptide S Receptor Antagonist Scaffold Based on the SHA-68 Core” (Pharmaceuticals, 2021).
